Each block holds one molecule with its values, some of them ahead of it.
Columns and labels:
Type in all cases: physicochemical
[1] = Crystalline stability against humidity (XRPD); details: no conversion into another crystalline form by XRPD
Experimental: Powder X-ray diffraction was performed with a Rigaku MiniFlex 600 diffractometer with Bragg-Brentano geometry CuKa radiation and D/teX Ultra Detector. The powder X-ray diffraction patterns were recorded at a tube voltage of 40kV and a tube current of 15 mA, applying a step size of 0.01° and speed 6.0°/min with the angular range 3-36° at ambient conditions.
A test for crystalline stability against humidity can be performed as follows: The sample is exposed to a relative humidity of 75% (±5%) at 40°C (±2°C) for 4 weeks. The expression "crystalline stability" means that no conversion into another crystalline form occurs, as determined by XRPD.
The equilibrium relative humidity of a sample is measured by determining the relative humidity in % in the air above a test sample, after establishment of a humidity equilibrium in a closed/open system at a constant temperature.
A test for crystalline stability against humidity has been performed as follows: The sample is exposed to a relative humidity of 75% (±5%) at 40°C(±2°C) for 4 weeks. The expression "crystalline stability" means that no conversion into another crystalline form occurs, as determined by XRPD.

[2] = Chemical stability under accelerated ICH storage conditions (HPLC); details: for Impurities (HPLC % a/a) RRT 1.30 / Impurities (HPLC % a/a) RRT 1.41 / Impurities (HPLC % a/a) RRT 1.40 / Impurities (HPLC % a/a) RRT 1.70 / Impurities (HPLC % a/a) RRT 2.20: 40°C, 75 ± 5% RH
Experimental: Purity and assay analysis was carried out using High Performance Liquid Chromatograph equipped with PDA detector. The analysis was conducted using Octadecyl silane (ODA or C18) chemically bonded to porous silica column, at a temperature of 40°C. The mobile phases was acetonitrile and 0.1% (v/v) ortho-phosphoric acid in water used in gradient.
Chemical stability study of the new crystalline forms of baricitinib i.e. PPH form I and PPH form II was performed under accelerated ICH storage conditions (40°C, 75±5% relative humidity). Samples were taken periodically (0 (start), after 1, 2, and 4 weeks) and analyzed by HPLC. Table 4 : HPLC purity of PPH form I of baricitinib

[3] = Hygroscopicity (statement, no method described)

- Crystalline stability study 40°C, 75 ± 5% RH After 1 week ([1]; after 1 week): Stable
- Crystalline stability study 40°C, 75 ± 5% RH After 4 weeks [1]: Stable
- Impurities (HPLC % a/a) RRT 1.30 ([2]; week 0): 0.01 % a/a
- Impurities (HPLC % a/a) RRT 1.41 ([2]; week 0): 0.03 % a/a
- Impurities (HPLC % a/a) RRT 1.30 ([2]; week 1): 0.01 % a/a
- Impurities (HPLC % a/a) RRT 1.41 ([2]; week 1): 0.03 % a/a
- Impurities (HPLC % a/a) RRT 1.30 ([2]; week 2): 0.01 % a/a
- Impurities (HPLC % a/a) RRT 1.41 ([2]; week 2): 0.03 % a/a
- Impurities (HPLC % a/a) RRT 1.30 ([2]; week 4): 0.01 % a/a
- Impurities (HPLC % a/a) RRT 1.41 ([2]; week 4): 0.03 % a/a
- Chemical stability (HPLC results) ([2]; during 0, 1, 2 and 4 weeks at 40°C, 75 ± 5% relative humidity): stable
- Hygroscopicity [3]: substantially non-hygroscopic
SMILES: CCS(=O)(=O)N1CC(CC#N)(n2cc(-c3ncnc4[nH]ccc34)cn2)C1 [PPH form I, {1-(Ethylsulfonyl)-3-[4-(7H-pyrrolo[2,3-d]pyrimidin-4-yl)-1H-pyrazol-1-yl]-3-azetidinyl}acetonitrile]

- Crystalline stability study 40°C, 75 ± 5% RH After 4 weeks ([1]; listed as PPH form II (Example 4)): Stable
- Crystalline stability study 40°C, 75 ± 5% RH After 4 weeks ([1]; listed as PPH form II of baricitinib): stable
- Impurities (HPLC % a/a) RRT 1.40 ([2]; week 0): 0.03 % a/a
- Impurities (HPLC % a/a) RRT 1.70 ([2]; week 0): 0.17 % a/a
- Impurities (HPLC % a/a) RRT 2.20 ([2]; week 0): 0.15 % a/a
- Impurities (HPLC % a/a) RRT 1.40 ([2]; week 1): 0.03 % a/a
- Impurities (HPLC % a/a) RRT 1.70 ([2]; week 1): 0.17 % a/a
- Impurities (HPLC % a/a) RRT 2.20 ([2]; week 1): 0.15 % a/a
- Impurities (HPLC % a/a) RRT 1.40 ([2]; week 2): 0.03 % a/a
- Impurities (HPLC % a/a) RRT 1.70 ([2]; week 2): 0.17 % a/a
- Impurities (HPLC % a/a) RRT 2.20 ([2]; week 2): 0.15 % a/a
- Impurities (HPLC % a/a) RRT 1.40 ([2]; week 4): 0.03 % a/a
- Impurities (HPLC % a/a) RRT 1.70 ([2]; week 4): 0.17 % a/a
- Impurities (HPLC % a/a) RRT 2.20 ([2]; week 4): 0.15 % a/a
SMILES: CCS(=O)(=O)N1CC(CC#N)(n2cc(-c3ncnc4[nH]ccc34)cn2)C1 [PPH form II, {1-(Ethylsulfonyl)-3-[4-(7H-pyrrolo[2,3-d]pyrimidin-4-yl)-1H-pyrazol-1-yl]-3-azetidinyl}acetonitrile]

— patent EP3771715A1, “CRYSTALLINE FORMS OF BARICITINIB” (Zaklady Farmaceutyczne "Polpharma" S.A., priority 2019, dated 2021)
